# Measurements as given in patent US8784911B2, “Compositions for treatment and prevention of diabetic complications using Osteomeles schwerinae” (Korea Institute of Oriental Medicine, priority 2009, dated 2014).
# Where two headings read alike, the source gives them in different places.
# Key:
# [1] = test system: advanced glycation endproduct generation (bovine serum albumin with fructose and glucose); test: In vitro inhibitory effect on advanced glycation endproduct generation (BSA + fructose/glucose, fluorescence); assay type: biochemical
# Protocol: Inhibitory effect of Osteomeles schwerinae small twig/leaf extract, fractions thereof obtained from each of hexane layer, ethyl acetate layer, butanol layer and water layer of the extract, and Osteomeles schwerinae seed extract on advanced glycation endproduct generation was investigated in vitro. Bovine serum albumin (BSA, Sigma, USA) was used as a protein source. BSA was added to 50 mM phosphate buffer (pH 7.4) at the concentration of 10 mg/ml. As a sugar source, the mixed solution of 0.2 M fructose and 0.2 M glucose was used. The mixed solution of fructose and glucose was added to the BSA solution. Osteomeles schwerinae small twig/leaf extract was prepared at different concentrations of 5 μg/ml, 10 μg/ml and 25 μg/ml. Hexane layer was also prepared at the concentrations of 10 μg/ml, 25 μg/ml and 50 μg/ml. Ethyl acetate layer was prepared at different concentrations of 5 μg/ml, 10 μg/ml and 25 μg/ml. Butanol layer and water layer were respectively prepared at the concentrations of 2.5 μg/ml, 5 μg/ml and 10 μg/ml. Osteomeles schwerinae seed extract was also prepared at different concentrations of 5 μg/ml, 10 μg/ml and 25 μg/ml. (All of those compounds were dissolved in DMSO, to which 15% tween 80 was added. At this time, the content of DMSO was 0.2%). Each extract or fraction was mixed with the mixed solution of BSA and sugars, followed by culture at 37° C. for 14 or 28 days. At this time, 0.02% sodium azide and antimycotics were added thereto as the antibacterial and antifungal agent. For the control, the mixed solution of BSA and sugars was cultured. The blank groups of each experimental and the control were composed as the above but not cultured. For the positive control, which would be used as an index for the comparison of the effect, aminoguanidine was used. To avoid error, 4 of each culture solution were prepared. 14 or 28 days later, the content of advanced glycation endproducts generated in each culture solution was measured and compared. AGEs therein were fluorescent and brown colored. They have physiochemical properties for the cross-linking and also have ligand that can be recognized by cell membrane receptor. The amount of AGEs having the said properties was measured with microplate reader (Excitation: 350 nm, Emission: 450 nm) to analyze the inhibitory effect on the generation of AGEs (Vinson, J. A. et al., J. Nutr. Biochem., 7: 659-663, 1996).
# Inhibitory rate of generation was calculated by the following formula. Inhibitory rate of generation(%)=100−(fluorescence intensity of experimental group sample−fluorescence intensity of empty sample)/(fluorescence intensity of control group sample−fluorescence intensity of control group empty sample)×100
# Aminoguanidine was dissolved in distilled water and then cultured at the concentrations of 37 μg/ml, 55.5 μg/ml and 74 μg/ml at 37° C. for 14 days and also cultured at the concentrations of 18.5 μg/ml, 37.0 μg/ml and 92.5 μg/ml for 28 days by the same manner as described above. The amount of advanced glycation endproducts generated in each culture solution was measured with microplate reader (Excitation: 350 nm, Emission: 450 nm). Inhibitory effect of Osteomeles schwerinae small twig/leaf extract, its fractions and Osteomeles schwerinae seed extract on advanced glycation endproduct generation was measured in vitro by the same manner as described above and the results are shown in Table 2.
# [2] = biological target: T1, aldose reductase (Rattus norvegicus, UniProt P07943); test: In vitro inhibitory effect on aldose reductase activity; assay type: biochemical, SD rat; settings: for inhibition of aldose reductase activity: compounds isolated from Osteomeles schwerinae extract
# T1 construct: To obtain natural aldose reductase from eyeballs of SD rat; from tissue; host or cells: lens of Sprague-Dawley rat (homogenate supernatant)
# Protocol: To obtain natural aldose reductase from eyeballs of SD rat (Sprague-Dawley rat, 250-280 g) by the method of Dufrane (1984), the extracted lens were pulverized together with 135 mM Na, K-phosphate buffer (pH 7.0), and 10 mm 2-mercaptoethanol using homogenizer and sonicater. After performing centrifugation at 14000 rpm for 30 minutes, the supernatant was filtered with 0.2 μm filter at 4° C. Quantification was performed by Lowry method using BSA as a protein source of enzyme. The mixture of 135 mM Na, K-phosphate buffer (pH 7.0), 100 mM lithium sulfate, 0.03 mM NADPH, 0.04 mM DL-glyceraldehyde and 100 μg/ml enzyme was dissolved in 0.1% DMSO, which was added to 50 μl of each sample diluted at different concentrations. Total volume of the mixture was adjusted to 1 ml, followed by reaction at 37° C. for 10 minutes. […] The reaction was terminated by adding 0.3 ml of 0.5 N HCl, to which 1 in of 6 M NaOH supplemented with 10 mM imidazole wad added, followed by reaction at 60° C. for 10 minutes. Then, conversion rate (NADP fluorescent product) was measured. Each sample was tested in triplicate. Inhibition effect was measured by using spectrofluorophotometric detector (Ex. 360 nm, Em. 460 nm, Bio-TEK, Synergy HT, USA) and the results were presented as IC50.
# [3] = test system: type I diabetes animal model induced by streptozotocin (STZ); test: Type I diabetes animal model induced by streptozotocin; assay type: in vivo, SD rat
# Protocol: Fully adapted (for 1 week) SD rats (6 weeks, 180-200 g) were used. After adaptation, the rats were fasted for 16 hours. Before the administration of samples, streptozotocin dissolved in 0.1 M citrate buffer (pH 4.5) was treated once by peritoneal injection (60 mg/kg). A week after the peritoneal injection, blood glucose level was measured at fasted or non-fasted state. Rats showing blood glucose level of at least 250 mg/dl at fasted state were selected and distributed fairly with considering the average. 5 groups were prepared as follows: the normal group treated with nothing (presented as Nor), the normal group treated with 200 mg/kg of Osteomeles schwerinae extract (presented as N+OS-141), the group induced with diabetes (presented as DM), the diabetes group treated with 100 mg/kg of Osteomeles schwerinae extract (presented as OS-100), and the positive control group treated with aminoguanidine (presented as AG). Osteomeles schwerinae extract and aminoguanidine were dissolved in water, which were administered orally to the rats every day (5 ml/kg) for 8 weeks. 8 weeks later, the animals were fasted, followed by autopsy. Blood was drawn from saphenons vein. Plasma was separated by centrifuging the whole blood at 3000 rpm at 4° C. The plasma was stored at −70° C. for the later use for data analysis. Each organ was weighed and frozen by using liquid nitrogen, which was stored at 70° C.
# Urine was taken for 24 hours on the last week before autopsy to comparatively observe renal function indices and oxidative stress factors. ELISA was performed to measure AGEs and podocyte (synaptopodin). Urine was mixed with coating buffer (50 mM carbonate buffer, pH 9.6) at the ratio of 1:2, which was distributed in 96 well plate (100 μl/well). After incubating the plate at 37° C. for 3 hours, the plate was washed with 0.05% PBST three times, and blocked with 3% skim milk. The plate was stood for one hour and then washed. AGEs (Transgenic, Japan) and synaptopodin (Santa Cruz, USA) antibody were diluted at the ratio of 1:1000 respectively, followed by loading in each well of the plate by 100 μl, which stood at 37° C. for 2 hours. After washing the plate with 0.05% PBST, HRP-conjugated 2nd antibody was loaded in each well of the plate by 100 μl, which stood at 37° C. for 1 hour. 3,3′,5,5′-tetramethylbenzidine (TMB) was added in each well of the plate by 100 μl. Five minutes later, reaction termination solution (1M H2SO4) was added in each well of the plate by 100 μl and then OD was measured with ELISA reader. Albuminuria and creatinine (Cr) used as renal function indices were measured.
# Kidney was extracted during autopsy, which was fixed in 10% neutralized formalin, followed by dehydration. The kidney was substituted with xylene three times, followed by embedding with paraffin. The embedded tissue block was cut into 4 μm sections, which were placed on microscope slide. PAS staining was performed to observe morphological changes. The stained slide was observed under optical microscope. […] To investigate fibrosis by collagen infiltrated in kidney cortex, Masson's trichrome staining was performed. Multiple numbers of collagen stained as blue by Masson's trichrome were observed around glomerular, basement membrane and in interstitial area between renal tubules in the diabetes group, but the difference was not significant from that of the normal group. […] Histological changes were traced 8 weeks after inducing diabetes. […]
# [4] = 24 h urine, last week, vs diabetes group
# [5] = STZ diabetic rats, 100 mg/kg oral daily, 8 weeks
smiles,measurement,setting,value
CC(=O)OC1C(c2c(O)cc(O)c3c(=O)cc(-c4ccc(O)cc4)oc23)OC(CO)C(O)C1O (centres unmarked) [2-O-acetylvitexin],inhibition of advanced glycation endproduct generation,[1]; compounds isolated from Osteomeles schwerinae extract,confirmed to inhibit
same,inhibition of aldose reductase activity,[2],confirmed to inhibit
"O=C(O)CC1(CC(=O)O)CCCC1 [3,3-tetramethyleneglutaric acid]",inhibition at 3.72 µg/mL,[2]; 3.72 μg/ml (20 μm),39.3 ± 4.17%
same,inhibition at 4.66 µg/mL,[2]; 4.66 μg/ml (25 μm),55.7 ± 3.25%
same,inhibition at 5.59 µg/mL,[2]; 5.59 μg/ml (30 μm),60.3 ± 1.39%
same,IC50,[2]; read-out: inhibitory effect (IC50) on aldose reductase,24.1 µM
same,IC50,"[2]; read-out: inhibitory effect (IC50, μg/ml) on aldose reductase (converted)",24.2 µM
Oc1cc(O)c2c(c1)O[C@H](c1ccc(O)c(O)c1)[C@H](O)C2 [(−)-epicatechin],inhibition of advanced glycation endproduct generation,[1],confirmed to inhibit
same,inhibition of aldose reductase activity,[2],confirmed to inhibit
N=C(N)NN [Aminoguanidine],"inhibitory effect (IC50, μg/ml)",[1]; 14 day,71.13 µg/mL
same,Inhibitory effect (%),"[1]; 14 day, 37 μg/ml",27.42 ± 1.51%
same,Inhibitory effect (%),"[1]; 14 day, 55.5 μg/ml",39.96 ± 0.90%
same,Inhibitory effect (%),"[1]; 14 day, 74 μg/ml",51.77 ± 1.91%
same,"inhibitory effect (IC50, μg/ml)",[1]; 28 day,91.30 µg/mL
same,Inhibitory effect (%),"[1]; 28 day, 18.5 μg/ml",14.89 ± 4.11%
same,Inhibitory effect (%),"[1]; 28 day, 37.0 μg/ml",24.93 ± 3.46%
same,Inhibitory effect (%),"[1]; 28 day, 92.5 μg/ml",50.41 ± 0.41%
same,expressions of AGEs and RAGE in kidney,[3]; 100 mg/kg,significantly reduced
same,"podocyte loss in glomerulus, synaptopodin and WT1 staining","[3]; 100 mg/kg, vs diabetes group",podocyte loss was reduced
same,"fibrosis by collagen in kidney cortex, Masson's trichrome staining",[3]; 8 weeks,such change was not peculiar
same,"glomerular basement membrane thickening, PAS staining","[3]; 8 weeks, vs untreated diabetes group",any change in glomerular basement membrane thickening was not observed
same,Albuminuria,[3]; [4],decreased significantly
same,Urine alb/Cr,[3]; [4],decreased
same,Body weight (g) Initial,"[3]; STZ diabetic rats, 100 mg/kg",244.3 ± 4.02 g
same,ALT (U/L),[3]; [5],158.9 ± 26.25 U/L
same,AST (U/L),[3]; [5],341.6 ± 70.90 U/L
same,Body weight (g) Final,[3]; [5],210.3 ± 9.98 g
same,8-OHdG in kidney,[3]; vs diabetes group,"reduced in the group treated with AG, but the decrease was not that significant"
C=C(C)C1CCC2(CO)CCC3(C)C(CCC4C5(C)CCC(OC(=O)C=Cc6ccc(O)c(O)c6)C(C)(C)C5CCC43C)C12 (stereo not drawn) [betuline-3β-yl-caffeate],inhibition of advanced glycation endproduct generation,[1],confirmed to inhibit
same,inhibition of aldose reductase activity,[2],confirmed to inhibit
C=C(C)C1CCC2(C(=O)O)CCC3(C)C(CCC4C5(C)CCC(OC(=O)C=Cc6ccc(O)c(O)c6)C(C)(C)C5CCC43C)C12 (stereo not drawn) [betulinic acid-3β-yl-caffeate],inhibition of advanced glycation endproduct generation,[1],confirmed to inhibit
same,inhibition of aldose reductase activity,[2],confirmed to inhibit
